Legend:
[1] = target: Phosphatidylinositol 4,5-bisphosphate 3-kinase catalytic subunit gamma isoform (Homo sapiens, UniProt P48736); experiment: Binding affinity to wild-type human PIK3Cgamma (S144 to A1102 residues) expressed in mammalian expression system by KINOMEScan assay
[2] = target: T1, Phosphatidylinositol 4,5-bisphosphate 3-kinase catalytic subunit beta isoform (Homo sapiens, UniProt P42338); experiment: Inhibition of PI3Kbeta in human PC3 cells assessed as reduction in AKT phosphorylation at Thr308 residue measured after 60 mins by ELISA; assay type: cell-based
[3] = target: Serine/threonine-protein kinase mTOR (Homo sapiens, UniProt P42345); experiment: Binding affinity to wild-type human MTOR (L1382 to W2549 residues) expressed in mammalian expression system by KINOMEScan assay
[4] = target: T1, Phosphatidylinositol 4,5-bisphosphate 3-kinase catalytic subunit beta isoform; experiment: Inhibition of PI3Kbeta in human PC3 cells assessed as reduction in AKT phosphorylation at S473 residue measured after 60 mins by ELISA; assay type: cell-based
[5] = target: T2, Phosphatidylinositol 4,5-bisphosphate 3-kinase catalytic subunit delta isoform (Homo sapiens, UniProt O00329); experiment: Binding affinity to wild-type human PIK3Cdelta (R108 to Q1044 residues) expressed in mammalian expression system by KINOMEScan assay
T2 sequence (O00329 whole entry): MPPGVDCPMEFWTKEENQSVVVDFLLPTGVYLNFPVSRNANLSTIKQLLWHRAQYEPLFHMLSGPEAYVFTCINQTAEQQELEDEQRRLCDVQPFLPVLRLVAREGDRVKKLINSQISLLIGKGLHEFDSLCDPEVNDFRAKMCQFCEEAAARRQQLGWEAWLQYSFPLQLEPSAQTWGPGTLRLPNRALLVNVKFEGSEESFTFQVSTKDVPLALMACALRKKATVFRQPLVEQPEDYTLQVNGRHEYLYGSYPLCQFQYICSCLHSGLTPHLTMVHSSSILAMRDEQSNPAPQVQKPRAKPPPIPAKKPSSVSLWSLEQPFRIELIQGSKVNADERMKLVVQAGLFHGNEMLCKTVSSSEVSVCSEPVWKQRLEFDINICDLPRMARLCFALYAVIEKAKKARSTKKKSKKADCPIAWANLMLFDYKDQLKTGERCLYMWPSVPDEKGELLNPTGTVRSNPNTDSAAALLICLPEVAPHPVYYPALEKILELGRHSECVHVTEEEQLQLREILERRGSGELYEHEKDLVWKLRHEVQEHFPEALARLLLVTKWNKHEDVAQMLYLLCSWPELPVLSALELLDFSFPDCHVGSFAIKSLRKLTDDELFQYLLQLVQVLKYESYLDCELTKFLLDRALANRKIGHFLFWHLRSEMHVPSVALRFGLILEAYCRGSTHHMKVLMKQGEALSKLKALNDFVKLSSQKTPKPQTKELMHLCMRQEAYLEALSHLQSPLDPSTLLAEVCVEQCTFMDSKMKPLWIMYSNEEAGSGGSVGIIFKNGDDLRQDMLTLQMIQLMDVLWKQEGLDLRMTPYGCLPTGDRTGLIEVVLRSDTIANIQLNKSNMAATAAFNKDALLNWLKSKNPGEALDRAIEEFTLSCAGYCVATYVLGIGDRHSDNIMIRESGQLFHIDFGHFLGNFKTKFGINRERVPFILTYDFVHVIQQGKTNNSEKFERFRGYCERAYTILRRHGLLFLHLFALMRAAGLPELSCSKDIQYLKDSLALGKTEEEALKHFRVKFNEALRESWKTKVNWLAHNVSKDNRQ

[6] = target: Phosphatidylinositol 4,5-bisphosphate 3-kinase catalytic subunit alpha isoform (Homo sapiens, UniProt P42336); experiment: Binding affinity to wild-type human PIK3Calpha (R108 to N1068 residues) expressed in mammalian expression system by KINOMEScan assay
[7] = target: T1, Phosphatidylinositol 4,5-bisphosphate 3-kinase catalytic subunit beta isoform; experiment: Binding affinity to wild-type human PIK3Cbeta (P118 to S1070 residues) expressed in mammalian expression system by KINOMEScan assay

Chain of Phosphatidylinositol 4,5-bisphosphate 3-kinase catalytic subunit alpha isoform (P42336 whole entry, the tested form may be a part, canonical isoform): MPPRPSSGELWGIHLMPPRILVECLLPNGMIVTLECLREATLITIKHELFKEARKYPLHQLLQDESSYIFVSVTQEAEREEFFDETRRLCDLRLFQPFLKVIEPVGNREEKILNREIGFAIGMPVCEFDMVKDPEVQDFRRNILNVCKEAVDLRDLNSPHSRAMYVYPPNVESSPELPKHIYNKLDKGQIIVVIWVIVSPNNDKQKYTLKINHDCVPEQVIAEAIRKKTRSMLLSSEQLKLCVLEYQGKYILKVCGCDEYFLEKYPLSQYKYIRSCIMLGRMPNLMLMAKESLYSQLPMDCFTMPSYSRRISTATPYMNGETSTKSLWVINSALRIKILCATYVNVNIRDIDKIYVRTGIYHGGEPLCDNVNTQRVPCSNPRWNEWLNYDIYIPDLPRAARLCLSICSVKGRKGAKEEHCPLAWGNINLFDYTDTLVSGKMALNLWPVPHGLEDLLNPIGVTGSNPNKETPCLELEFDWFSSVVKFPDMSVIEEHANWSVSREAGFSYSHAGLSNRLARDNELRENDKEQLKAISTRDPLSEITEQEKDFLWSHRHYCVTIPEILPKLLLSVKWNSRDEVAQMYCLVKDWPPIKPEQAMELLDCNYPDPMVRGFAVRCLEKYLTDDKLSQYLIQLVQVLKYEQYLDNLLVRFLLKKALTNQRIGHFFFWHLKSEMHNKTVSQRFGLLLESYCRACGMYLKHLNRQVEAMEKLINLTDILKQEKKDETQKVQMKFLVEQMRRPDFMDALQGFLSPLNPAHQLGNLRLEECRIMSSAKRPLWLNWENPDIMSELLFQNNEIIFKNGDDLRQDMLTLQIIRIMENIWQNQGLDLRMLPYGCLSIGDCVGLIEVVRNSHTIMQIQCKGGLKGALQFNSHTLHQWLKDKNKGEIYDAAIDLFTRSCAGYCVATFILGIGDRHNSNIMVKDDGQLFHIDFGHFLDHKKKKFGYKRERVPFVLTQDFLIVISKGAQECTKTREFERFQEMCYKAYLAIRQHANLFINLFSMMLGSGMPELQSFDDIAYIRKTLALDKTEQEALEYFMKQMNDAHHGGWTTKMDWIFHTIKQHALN
T1 sequence (P42338 whole entry, the tested form may be a part, canonical isoform): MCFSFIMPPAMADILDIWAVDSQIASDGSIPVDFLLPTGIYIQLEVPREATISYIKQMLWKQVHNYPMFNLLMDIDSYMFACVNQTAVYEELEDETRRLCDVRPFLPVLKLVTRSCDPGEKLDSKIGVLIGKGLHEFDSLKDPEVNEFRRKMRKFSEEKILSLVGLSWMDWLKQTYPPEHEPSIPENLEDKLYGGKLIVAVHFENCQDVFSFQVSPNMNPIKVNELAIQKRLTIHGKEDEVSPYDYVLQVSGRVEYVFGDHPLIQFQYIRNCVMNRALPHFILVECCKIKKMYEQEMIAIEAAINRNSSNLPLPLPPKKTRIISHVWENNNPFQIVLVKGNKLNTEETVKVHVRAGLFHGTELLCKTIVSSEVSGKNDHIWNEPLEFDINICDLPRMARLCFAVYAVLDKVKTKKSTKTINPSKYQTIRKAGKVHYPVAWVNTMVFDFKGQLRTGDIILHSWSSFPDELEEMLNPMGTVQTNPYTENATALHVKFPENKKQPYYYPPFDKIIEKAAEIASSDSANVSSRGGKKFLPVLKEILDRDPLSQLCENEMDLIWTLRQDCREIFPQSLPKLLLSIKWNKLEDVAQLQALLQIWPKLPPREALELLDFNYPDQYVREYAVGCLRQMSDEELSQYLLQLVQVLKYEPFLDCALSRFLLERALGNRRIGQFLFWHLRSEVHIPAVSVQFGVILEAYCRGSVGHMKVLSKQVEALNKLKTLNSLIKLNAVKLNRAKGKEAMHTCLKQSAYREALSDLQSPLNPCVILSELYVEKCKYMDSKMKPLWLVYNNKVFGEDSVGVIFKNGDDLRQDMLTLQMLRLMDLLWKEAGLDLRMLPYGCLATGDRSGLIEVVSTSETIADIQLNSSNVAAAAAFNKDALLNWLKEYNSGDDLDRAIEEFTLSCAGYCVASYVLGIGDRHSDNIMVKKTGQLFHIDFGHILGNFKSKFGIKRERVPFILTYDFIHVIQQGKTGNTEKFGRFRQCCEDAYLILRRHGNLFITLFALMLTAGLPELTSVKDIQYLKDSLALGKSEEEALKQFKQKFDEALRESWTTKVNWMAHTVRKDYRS
Chain of Phosphatidylinositol 4,5-bisphosphate 3-kinase catalytic subunit gamma isoform (P48736 whole entry, the tested form may be a part, canonical isoform): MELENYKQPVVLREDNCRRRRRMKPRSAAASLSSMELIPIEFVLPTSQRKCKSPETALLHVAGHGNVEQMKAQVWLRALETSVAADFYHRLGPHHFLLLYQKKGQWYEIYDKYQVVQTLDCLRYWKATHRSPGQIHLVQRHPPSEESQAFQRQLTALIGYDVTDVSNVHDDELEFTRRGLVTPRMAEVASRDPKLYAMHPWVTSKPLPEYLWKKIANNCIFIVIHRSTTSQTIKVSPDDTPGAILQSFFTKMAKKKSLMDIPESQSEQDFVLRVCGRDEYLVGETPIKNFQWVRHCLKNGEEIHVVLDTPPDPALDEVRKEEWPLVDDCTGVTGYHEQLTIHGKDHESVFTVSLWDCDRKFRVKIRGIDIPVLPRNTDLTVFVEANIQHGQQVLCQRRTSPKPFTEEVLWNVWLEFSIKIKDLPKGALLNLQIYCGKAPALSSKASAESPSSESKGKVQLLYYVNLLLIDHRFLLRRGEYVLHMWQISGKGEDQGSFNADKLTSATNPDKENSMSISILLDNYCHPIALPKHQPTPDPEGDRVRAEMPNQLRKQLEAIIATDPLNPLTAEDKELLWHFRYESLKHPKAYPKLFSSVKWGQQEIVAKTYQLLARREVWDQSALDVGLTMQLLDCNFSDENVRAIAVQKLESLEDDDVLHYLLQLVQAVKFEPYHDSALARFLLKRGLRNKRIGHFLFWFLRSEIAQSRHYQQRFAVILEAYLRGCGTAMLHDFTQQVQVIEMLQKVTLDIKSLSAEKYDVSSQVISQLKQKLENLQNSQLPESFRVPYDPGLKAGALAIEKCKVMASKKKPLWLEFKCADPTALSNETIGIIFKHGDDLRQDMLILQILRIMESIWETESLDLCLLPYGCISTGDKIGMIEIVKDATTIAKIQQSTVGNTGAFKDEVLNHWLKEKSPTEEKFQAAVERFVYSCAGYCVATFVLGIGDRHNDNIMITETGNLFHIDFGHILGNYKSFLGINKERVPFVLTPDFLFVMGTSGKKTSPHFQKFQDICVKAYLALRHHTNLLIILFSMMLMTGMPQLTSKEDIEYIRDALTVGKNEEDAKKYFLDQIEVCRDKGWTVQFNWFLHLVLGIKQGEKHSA

Row | Structure (SMILES) | Kd [1] | IC50 [2] | Kd [3] | IC50 [4] | Kd [5] | Kd [6] | Kd [7]
1 | CN(C)C(=O)c1cc([C@@H]2CCCN2c2cc(F)cc(F)c2)c2nc(N3CCOCC3)cnc2c1 | > 30200 nM | > 513 nM | > 30200 nM | > 513 nM |  |  | 
2 | Cc1c(F)cccc1NCc1cc(C(=O)NCCN(C)C)cc2ncc(N3CCOCC3)nc12 | 6610 nM | 9 nM | 17800 nM | 9 nM | 324 nM | 1910 nM | 0.2 nM
3 | C[C@@H](Nc1cccc(F)c1)c1cc(C(=O)NCCO)cc2ncc(N3CCOCC3)nc12 | 3410 nM | 44 nM | 17100 nM | 49 nM | 324 nM | 1100 nM | 3 nM
4 | C[C@@H](Nc1cc(F)cc(F)c1)c1cc(C(=O)NCCN(C)C)cc2ncc(N3CCOCC3)nc12 |  | 2 nM |  | 2 nM |  |  | 
5 | C[C@H](Nc1cc(F)cc(F)c1)c1cc(C(=O)NCCN(C)C)cc2ncc(N3CCOCC3)nc12 |  | 148 nM | > 30200 nM | 331 nM |  |  | 
6 | C[C@H](Nc1cccc(F)c1)c1cc(C(=O)NCCO)cc2ncc(N3CCOCC3)nc12 |  | > 513 nM | > 30200 nM | > 513 nM |  |  | 
7 | CN(C)C(=O)c1cc([C@H]2CCCN2c2cc(F)cc(F)c2)c2nc(N3CCOCC3)cnc2c1 | 313 nM | 3 nM | 28200 nM | 2 nM | 15 nM | 34 nM | 0.3 nM
8 | C[C@@H]1CN(C(=O)c2cc(C3CCCN3c3cc(F)cc(F)c3)c3nc(N4CCOCC4)cnc3c2)C[C@H](C)N1 (mixture of isomers) | 214 nM | 5 nM | > 30200 nM | 7 nM | 7 nM | 14 nM | 0.2 nM
9 | CC(Nc1cc(F)cc(F)c1)c1cc(C(=O)NCCN(C)C)cc2ncc(N3CCOCC3)nc12 (racemic) |  | 3 nM | > 30200 nM | 6 nM |  |  | 
10 | CNCCNC(=O)c1cc(C(C)Nc2cccc(F)c2)c2nc(N3CCOCC3)cnc2c1 (racemic) |  | 6 nM |  | 7 nM |  |  | 
11 | CN(C)C(=O)c1cc(C2CCCN2c2cc(F)cc(F)c2)c2nc(N3CCOCC3)cnc2c1 (racemic) |  | 1.35 nM | > 30200 nM | 4 nM |  |  | 
